According to patent US11000512B2, “Use of DDX3 inhibitors as antiproliferative agents” (AZIENDA OSPEDALIERA UNIVERSITARIA SENESE, priority 2016, dated 2021):

Legend:
[1] = test system: Human head and neck squamous carcinoma cell line (HN6); experiment: Cytotoxicity test / growth inhibition, HN6; type: cell-based; conditions: HN6, 48 hours, cell counting
Description: (§1) Cells were purchased from American Type Culture Collection (ATCC, Manassas, Va., USA). The LNCaP (ATCC® CRL-1740™), A549 (ATCC® CCL-185™), MDA-MB-231 (ATCC® CRM-HTB-26™), 22Rv1 (ATCC® CRL-2505™), HCT-116 (ATCC® CCL-247™) and PC3 (ATCC® CRL-1435™) cells were maintained in Roswell Park Memorial Institute 1640 medium (RPMI; Euroclone, ECB9006L) supplemented with 10% fetal bovine serum (Euroclone; ECS0180L), 2 mM L-glutamine, 100 units/mL penicillin and […] streptomycin at 37° C. in an atmosphere of 5% CO2/air. DU145 (ATCC® HTB-81™), and DAOY (ATCC® HTB-186™) cells were maintained in Eagle's minimal essential medium (EMEM; Euro-clone, ECM0445L) supplemented with 10% fetal bovine serum (Euroclone; ECS0180L), 2 mM L-glutamine, 100 units/ml penicillin and […] streptomycin at 37° C. in an atmosphere of 5% CO2/air. SH-SY5Y (ATCC® CRL-2266™), DBRTG (ATCC® CRL-2020™), HeLa (ATCC® CCL-2™), HN6 cells (kindly provided by Dr Silvio Gutkind, UCSD Medical Center, Moores Cancer Center USA, Chen J. J et al, Oncotarget 2013, 4, 206-217)), U2OS (ATCC® HTB-96™), RD18 cells (kindly provided by Dr P. Boccuni Memorial Sloan-Kettering Cancer Center, New York, USA Vella S. et al. Clin Epigenetics. 2015 6; 7-82), cells were maintained in Dulbecco's modified Eagle's medium (DMEM; Euroclone, ECB7501L) supplemented with 10% fetal bovine serum (Euroclone; ECS0180L), 2 mM L-glutamine, 100 units/ml penicillin and 100 mg/mL streptomycin at 37° C. in an atmosphere of 5% CO2/air.
(§2) Cell lines were seeded at appropriate densities in 2 mL growth medium in 6-wells culture plates 24 hours before the treatment with the inhibitor compounds. After 24 h the culture medium was removed and fresh medium containing increasing concentrations of chemical compounds was added to cells. The fixed final concentrations were: 0.1 μM, 1 μM, 10 μM, 100 μM. DMSO was the vehicle used for dilution of the compounds and its final concentration on cells was less than 0.2%. Medium-only containing wells were included as controls. Cells were incubated 48 hours with drugs and, then, cell viability was evaluated.
(§3) Cells were detached from each well of the 6-wells plates with 300 μL of Trypsin and suspended in culture medium to a final volume of 1 mL. Cell viability was then assessed through cell counting. Cells were diluted in 1:50 ratio of an isotonic buffered diluent, Isoton (Backman Coulter), following the manufacturer's instructions, and counted using an automated cell counter (Z2 series Coulter Counter, Beckman Coulter). Each cell count was performed in three replicates. The values corresponding to the relative survival of cells in presence of each chemical compound at single concentrations were normalized to the untreated controls. Then, the half maximal inhibitory concentration (IC50) value, which represent the drug concentration that is required to induce a 50% growth inhibition in vitro, was calculated with GraphPad Prism 6.0 software using the best fitting sigmoid curve.

[2] = test system: Human colorectal carcinoma cell line (HCT116); experiment: Cytotoxicity test / growth inhibition, HCT116; type: cell-based; conditions: HCT-116, HCT116, 48 hours, cell counting
Description: as §1, with “2015 6; 7-82), cells were maintained in Dulbecco's modified Eagle's medium (DMEM; Euroclone, ECB7501L) supplemented with 10% fetal bovine serum (Euroclone; ECS0180L), 2 mM L-glutamine, 100 units/ml penicillin and 100 mg/mL streptomycin at 37° C. in an atmosphere of 5% CO2/air.” left out
(§4) Cell lines were seeded at appropriate densities in 2 mL growth medium in 6-wells culture plates 24 hours before the treatment with the inhibitor compounds. […] Cells were incubated 48 hours with drugs and, then, cell viability was evaluated.
(§5) Cells were detached from each well of the 6-wells plates with 300 μL of Trypsin and suspended in culture medium to a final volume of 1 mL. Cell viability was then assessed through cell counting. Cells were diluted in 1:50 ratio of an isotonic buffered diluent, Isoton (Backman Coulter), following the manufacturer's instructions, and counted using an automated cell counter (Z2 series Coulter Counter, Beckman Coulter). […]

[3] = test system: Human breast adenocarcinoma cell line (MDA-MB-231); experiment: Cytotoxicity test / growth inhibition, MDA-MB-231; type: cell-based; conditions: MDA-MB-231, 48 hours, cell counting
Description: as §1, §2, §3

[4] = test system: Human adenocarcinomic alveolar basal epithelial cell line (A549); experiment: Cytotoxicity test / growth inhibition, A549; type: cell-based; conditions: A549, 48 hours, cell counting
Description: as §1, §2, §3

[5] = test system: Human Prostate cancer cell line (PC3); experiment: Cytotoxicity test / growth inhibition, PC3; type: cell-based; conditions: PC3, 48 hours, cell counting
Description: as §1, with “2015 6; 7-82), cells were maintained in Dulbecco's modified Eagle's medium (DMEM; Euroclone, ECB7501L) supplemented with 10% fetal bovine serum (Euroclone; ECS0180L), 2 mM L-glutamine, 100 units/ml penicillin and 100 mg/mL streptomycin at 37° C. in an atmosphere of 5% CO2/air.” left out
as §4, §5

[6] = test system: Human Prostate cell line derived from brain metastasis (DU-145); experiment: Cytotoxicity test / growth inhibition, DU-145; type: cell-based; conditions: DU-145, 48 hours, cell counting
Description: as §1, §2
as §5, with “Coulter). Each cell count was performed in three replicates. The values corresponding to the relative survival of cells in presence of each chemical compound at single concentrations were normalized to the untreated controls.” for “Coulter).”

[7] = biological target: T1, Human recombinant DDX3 (DDX3 wt helicase) (Homo sapiens, UniProt O00571); experiment: Helicase assay (anti-enzymatic activity against the DDX3 helicase); type: biochemical; conditions: DDX3 helicase activity, dsRNA unwinding; n.a = Compound not active; read-out: ID50 (the source's name)
T1 construct: made in house
T1 sequence (O00571 whole entry): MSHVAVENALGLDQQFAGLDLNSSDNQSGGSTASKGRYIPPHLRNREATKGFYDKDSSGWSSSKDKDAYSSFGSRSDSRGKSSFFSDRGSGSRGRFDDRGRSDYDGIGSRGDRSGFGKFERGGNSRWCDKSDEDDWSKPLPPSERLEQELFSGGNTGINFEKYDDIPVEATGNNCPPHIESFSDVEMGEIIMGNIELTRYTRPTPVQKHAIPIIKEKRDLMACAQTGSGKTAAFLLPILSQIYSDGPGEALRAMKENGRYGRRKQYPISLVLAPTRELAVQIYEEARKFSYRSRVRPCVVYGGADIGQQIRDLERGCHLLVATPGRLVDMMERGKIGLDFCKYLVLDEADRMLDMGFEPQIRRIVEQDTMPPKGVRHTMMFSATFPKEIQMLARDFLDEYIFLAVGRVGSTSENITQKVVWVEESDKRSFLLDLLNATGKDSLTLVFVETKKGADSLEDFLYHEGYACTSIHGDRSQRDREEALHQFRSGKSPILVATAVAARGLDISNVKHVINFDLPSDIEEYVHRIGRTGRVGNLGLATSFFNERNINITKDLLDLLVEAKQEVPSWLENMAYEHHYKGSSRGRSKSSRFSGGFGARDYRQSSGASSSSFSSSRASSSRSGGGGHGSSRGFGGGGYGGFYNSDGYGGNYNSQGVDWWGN
Description: The helicase activity of DDX3 wt was monitored by measuring the conversion of a double stranded (ds) RNA (labelled at the 5′-end of one strand with a 6-FAM fluorescent) into single stranded (ss) nucleic acid. A final concentration of 25 nM RNA substrate was used in the experiments, unless otherwise stated. Reactions were performed in 50 mM TrisHCl pH 7.5, 1 mM DTT, 0.2 mg/ml BSA, 5% glycerol and 100 μM ATP, 10 mM MgCl2 at 37° C. degrees for 10′ and stopped by adding EDTA 50 mM pH 8. Products were separated through non-denaturating 8% PAGE at 5 W for 4 hours in TBE buffer at 4° C. Substrates and products were quantified by laser scanning densitometry (Thyphoon-TRIO, GE Healthcare).
Human recombinant DDX3 was cloned, expressed and purified as described (Franca et al. Proteins 2007, 67, 1128-37).

HIV = conditions: viral load of PBMCs infected with HIV; cited from earlier work
HIV-1 (IIIB) = HIV-1 (IIIB) in MT4-cells; cited from earlier work
ATPase activity of DDX3 = ATPase activity of DDX3 (Homo sapiens, UniProt O00571); conditions: Maga et al. 2008; cited from earlier work
Chain of ATPase activity of DDX3 (O00571 whole entry): as above

MOLT-4 T-lymphocytic = conditions: cited from earlier work

SMILES: CCCCc1nnc(-c2ccc(NC(=O)Nc3ccccc3C(F)(F)F)cc2)o1 [Compound 112, 1-(4-(5-butyl-1,3,4-oxadiazol-2-yl)phenyl)-3-(2-(trifluoromethyl)phenyl)urea]
- IC50 [1]: 75.7 µM
- IC50 [2]: 38.2 µM
- IC50 [3]: 33.6 µM
- IC50 [4]: 57.1 µM

SMILES: CCCCc1nnc(-c2ccc(NC(=O)Nc3ccccc3C(F)(F)F)cc2)[nH]1 [Compound 119, 1-(4-(5-butyl-4H-1,2,4-triazol-3-yl)phenyl)-3-(2-(trifluoromethyl)phenyl)urea]
- IC50 [5]: 46.3 µM
- IC50 [6]: 12.9 µM
- IC50 [7]: 1000 nM
- IC50 [4]: 14 µM

SMILES: Cc1ccccc1NC(=O)Nc1cccc([N+](=O)[O-])c1 [EI01D]
- EC50 (HIV): 10 µM

SMILES: O=C(CN1C(=O)/C(=C/c2cccc(Br)c2)SC1=S)Nc1ccccc1O [FE15]
- EC50 (HIV-1 (IIIB)): 86.7 µM
- Ki (ATPase activity of DDX3): 5.4 µM
- CC50 (MOLT-4 T-lymphocytic): > 200 µM
